Data: paper PMC7469199, “Immunosuppressive Activities of Novel PLA2 Inhibitors from Xenorhabdus hominickii, an Entomopathogenic Bacterium” (Insects, 2020)

How the values were obtained:
[1] = test system: hemocyte phagocytosis of S. exigua; test: Phagocytosis assay with FITC-labeled E. coli in L5 larvae; type: in vivo, Spodoptera exigua; conditions: AA 10 µg/larva with the eight compounds
Method: For in vivo phagocytosis assay, test chemical (1 µL) and FITC-labeled E. coli (5 µL, 5 × 10^4 cells/µL) were injected to L5 larva. Hemolymph (50 µL) was collected at 15 min after injection and mixed with 50 µL of ice cold ACB. After centrifugation at 700 × g for 3 min at 4 °C, the supernatant plasma was replaced with 100 µL of TC-100 insect cell culture medium (Welgene, Daegu, Korea). Hemocyte suspension (10 µL) was placed onto a slide and over laid with 10 µL glycerol (50%, v/v). Hemocytes undergoing phagocytosis were determined by fluorescence-emitting cells under a fluorescence microscope (Leica, Wetzlar, Germany) at 40× magnification. For in vitro phagocytosis, hemocyte suspension and labeled bacteria mixture (30 µL) were incubated in a dark place for 1 h at room temperature. Hemocytes were then washed three times with PBS by centrifugation at 700× g for 2 min at 4 °C and finally resuspended in TC-100 medium. This hemocyte suspension was observed under the fluorescence microscope in FITC or DIC mode after forming monolayers on glass slides.

[2] = test system: hemocyte nodule formation; test: Nodulation assay after E. coli injection in L5 larvae; type: in vivo, Spodoptera exigua; conditions: AA 10 µg/larva co-injected with extract, subfraction or compound and E. coli
Method: To assess nodule formation, immune challenge was performed by injecting 3 µL of Escherichia coli Top10 (10^4 cells/larva) (Invitrogen, Madison, WI, USA) through the abdominal proleg of L5 larvae using a microsyringe (Hamilton, Reno, NV, USA). After incubating at 25 °C for 8 h, test insects were dissected to count the number of melanized nodules under a stereo microscope (Stemi SV11, Zeiss, Jena, Germany) at 50× magnification. For chemical test, 1 µL aliquot of test chemical at different concentrations was injected into each larva along with E. coli. AA was injected at 10 μg per larva. Each treatment was independently replicated five times.

SMILES: CCCCCC=CCC=CCC=CCC=CCCCC(=O)O [AA, 5,8,11,14-eicosatetraenoic acid, reference compound]
- Reversal of suppressed phagocytosis by AA addition [1]: reversed
- Rescue of suppressed nodule formation by AA addition [2]: significantly (p < 0.05) rescued
